Molecular target: ATP-dependent translocase ABCB1 (Homo sapiens, UniProt P08183)
Assay: TP_TRANSPORTER: inhibition of DNR efflux (DNR: ? uM) in MDR1-expressing NIH3T3 cells
Format: functional, cell-based

ATP-dependent translocase ABCB1, sequence (P08183 whole entry): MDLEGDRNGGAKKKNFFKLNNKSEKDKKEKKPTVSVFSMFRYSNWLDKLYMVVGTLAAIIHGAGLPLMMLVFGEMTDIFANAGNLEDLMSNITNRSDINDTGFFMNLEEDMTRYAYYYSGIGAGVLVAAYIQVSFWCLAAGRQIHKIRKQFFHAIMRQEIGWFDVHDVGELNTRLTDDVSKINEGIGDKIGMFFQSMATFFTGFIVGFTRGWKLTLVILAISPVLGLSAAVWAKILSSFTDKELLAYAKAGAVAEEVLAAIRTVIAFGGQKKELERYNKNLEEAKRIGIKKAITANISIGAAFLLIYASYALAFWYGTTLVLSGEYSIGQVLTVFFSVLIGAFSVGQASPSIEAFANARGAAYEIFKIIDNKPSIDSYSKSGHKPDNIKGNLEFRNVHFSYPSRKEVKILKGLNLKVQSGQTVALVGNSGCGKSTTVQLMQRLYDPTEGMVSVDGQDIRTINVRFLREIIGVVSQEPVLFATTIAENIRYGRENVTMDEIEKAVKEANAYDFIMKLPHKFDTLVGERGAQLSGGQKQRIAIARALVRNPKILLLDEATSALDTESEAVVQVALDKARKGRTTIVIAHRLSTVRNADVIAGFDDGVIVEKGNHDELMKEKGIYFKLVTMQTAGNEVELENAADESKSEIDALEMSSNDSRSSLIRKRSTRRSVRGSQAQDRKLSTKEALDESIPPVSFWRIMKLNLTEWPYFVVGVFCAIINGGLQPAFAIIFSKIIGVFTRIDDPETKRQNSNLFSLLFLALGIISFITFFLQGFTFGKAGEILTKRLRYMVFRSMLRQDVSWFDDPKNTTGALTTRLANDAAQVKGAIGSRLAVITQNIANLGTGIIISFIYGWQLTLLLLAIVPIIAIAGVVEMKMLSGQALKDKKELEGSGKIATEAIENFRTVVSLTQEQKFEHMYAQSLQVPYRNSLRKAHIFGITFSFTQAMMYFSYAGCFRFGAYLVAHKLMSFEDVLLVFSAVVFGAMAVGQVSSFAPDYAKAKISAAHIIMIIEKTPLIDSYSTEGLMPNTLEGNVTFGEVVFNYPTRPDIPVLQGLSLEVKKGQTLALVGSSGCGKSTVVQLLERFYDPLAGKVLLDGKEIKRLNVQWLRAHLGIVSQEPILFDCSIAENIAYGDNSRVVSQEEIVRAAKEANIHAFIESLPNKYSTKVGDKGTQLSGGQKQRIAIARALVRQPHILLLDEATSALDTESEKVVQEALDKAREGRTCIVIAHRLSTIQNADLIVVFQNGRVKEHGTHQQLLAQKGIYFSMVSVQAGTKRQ

NC(=O)N1CCC(CC(=O)N2CCC([C@H]3c4ncc(Br)cc4CCc4cc(Cl)cc(Br)c43)CC2)CC1 [LONAFARNIB]
IC50: 2.7 µM
